As a reminder, the inhibition is the change of the read-out against control, counted positive when it falls. The term ED50 denotes the dose that gives a 50% effect, or the effect in half of the subjects.

Counter-ions that a name gives are not always drawn. Like-named read-outs stand apart in the source and are kept apart here.

Here are results for 17 compounds from patent publication US6306847A, “Condensed purine derivatives” (Kyowa Hakko Kogyo Co., Ltd., priority 1996, dated 2001).

Data set [1] has as its target T1, human adenosine A3 receptors (Homo sapiens, UniProt P0DMS8).
T1 construct: expressed in transfected cells; host or cells: HEK293
T1 sequence (P0DMS8 1-318): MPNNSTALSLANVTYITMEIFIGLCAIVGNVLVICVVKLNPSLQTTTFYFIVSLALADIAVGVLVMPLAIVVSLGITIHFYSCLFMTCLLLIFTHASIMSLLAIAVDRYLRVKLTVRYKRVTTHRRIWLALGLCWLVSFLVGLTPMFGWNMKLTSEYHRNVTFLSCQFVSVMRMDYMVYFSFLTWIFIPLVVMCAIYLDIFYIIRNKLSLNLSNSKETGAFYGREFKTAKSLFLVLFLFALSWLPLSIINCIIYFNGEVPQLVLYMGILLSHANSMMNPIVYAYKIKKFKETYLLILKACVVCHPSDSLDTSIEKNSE
The data set is described as follows: Test of adenosine A3 receptor binding ([125I]AB-MECA, transfected HEK293 cell homogenate). The settings on record: for inhibition at 0.1 µM: read-out: The rate of inhibition (%) 10^-7 M; for inhibition at 0.01 µM: read-out: The rate of inhibition (%) 10^-8 M. How it is done: The transfected HEK293 cells that expressed the human adenosine A3 receptors were homogenized in 5 mM tris(hydroxymethyl)aminomethane hydrochloric acid buffer containing 5 mM magnesium chloride (pH 7.6) by a Teflon homogenizer (Iuchiseieido Corp.). The resultant suspension was centrifuged (4000×g, 20 minutes), and a 50 mM tris(hydromethyl)aminomethane/10 mM magnesium chloride/hydrochloric acid buffer (pH 7.6) (referred to as "the Tris-HCl buffer" hereinafter) was added to the precipitate to generate the cell suspension ( the protein concentration 0.25 mg/ml). To the cell suspension was added adenosine deaminase so that the concentration was 2 U/ml, and the resultant mixture was used in the following binding experiment.
The glass fiber filter was transferred to a polypropylene tube, and the radioactivity was measured by a gamma counter (Packard Corp.).
(Rate of inhibition)=(A-B)/(C-D)×100
A: Amount of binding in the presence of the test compound
B: Amount of non-specific binding
C: Amount of total binding
D: Amount of non-specific binding

In data set [2] the test system is ddY mice. The note with it: mouse, in vivo. The source says: A group consisting of three ddY mice (Japanese SLC) having a body weight of 19 to 21 g was used. One week after oral administration of compound 5, death of the mice was observed.
Data set [3] concerns compound 48/80 induced pruritic action. In words: Test of inhibition of compound 48/80 induced pruritic action (scratching behavior in mice). The class given is in vivo, ddy mice. The settings on record: for (A) The number of scratching behavior/10 minutes: compound 48/80 0.5 mg/kg s.c., n=10; for (B) The rate of inhibition (%): number of scratching behavior relative to control group. As for the experimental part: A group consisting of 10 ddy mice (Japanese SLC) having a body weight of […] was used in the test. After compound 5 was orally administered, 0.5 mg/kg of compound 48/80 was subcutaneously administered in a volume of 0.1 ml per 20 g. 10 minutes after administration of compound 48/80, the number of scratching behavior was measured for 10 minutes. The rate of inhibition of the group of mice administered with compound 5 relative to the number of scratching behavior of a control group was calculated, and ED50 was calculated from the rate of inhibition.

Where [4] appears, read: 10^-7 M test compound, [125I]AB-MECA 0.1 nM.
Setting [5] is: 10^-8 M test compound, [125I]AB-MECA 0.1 nM.

With `CCN1C(=O)N2CCN=C2c2[nH]c(-c3ccc(Br)cc3)nc21` [Compound 1, 2-(p-Bromophenyl)-4-ethyl-1,4,7,8-tetrahydro-5H-imidazo[2,1-i]purine-5-one hydrochloride], in data set [1], the inhibition at 0.1 µM amounted to 97% and the inhibition at 0.01 µM is 88%.

With `CCN1C(=O)N2CCCN=C2c2[nH]c(-c3ccc(Br)cc3)nc21` [Compound 2, 2-(p-Bromophenyl)-4-ethyl-1,4,5,7,8,9-hexahydropyrimido [2,1-i]purine-5-onehydrochloride], the inhibition at 0.1 µM in data set [1] (setting [4]) came out at 55%. Besides, in data set [1] (setting [5]), the inhibition at 0.01 µM stood at 29%.

For `CCN1C(=O)N2CC(C)N=C2c2[nH]c(-c3ccc(Br)cc3)nc21` (centres unmarked) [Compound 3, 2-(p-Bromophenyl)-4-ethyl-8-methyl-1,4,7,8-tetrahydro-5H-imidazo [2,1-i]-purine-5-one hydrochloride], in data set [1], the inhibition at 0.1 µM turned out to be 96% and the inhibition at 0.01 µM came out at 65%.

For `CCC1CN2C(=O)N(CC)c3nc(-c4ccc(Br)cc4)[nH]c3C2=N1` (centres unmarked) [Compound 4, 2-(p-Bromophenyl)-4,8-diethyl-1,4,7,8-tetrahydro-5H-imidazo[2,1-i]purine-5-one hydrochloride], in data set [1], the inhibition at 0.1 µM came to 90% and the inhibition at 0.01 µM is 73%.

`CCCN1C(=O)N2CCN=C2c2[nH]c(-c3ccc(Br)cc3)nc21.Cl` [Compound 5, 2-(p-Bromophenyl)-4-propyl-1,4,7,8-tetrahydro-5H-imidazo [2,1-i]purine-5-one hydrochloride]: the “death of the mice” value in data set [2] is listed as “no death was observed”. Moreover, the “(A) The number of scratching behavior/10 minutes” value in data set [3] (30 mg/kg p.o.) was 10.70 ± 4.45 /10 minutes; in data set [3] (100 mg/kg p.o.), 7.60 ± 3.12 /10 minutes; in data set [3] (300 mg/kg p.o.) it was 6.00 ± 2.88 /10 minutes. Moreover, the “(B) The rate of inhibition (%)” value in data set [3] (30 mg/kg p.o.) is reported as 34.0%; in data set [3] (100 mg/kg p.o.), 53.1%; in data set [3] (300 mg/kg p.o.), 63.0%. Moreover, in data set [3] (Mus musculus, po, calculated from the rate of inhibition), the ED50 was 96.8 mg/kg. The “inhibitory action on the compound 48/80 induced itching” value in data set [3] (p.o., mice) is “exhibited its inhibitory action”.

Consider `CCCN1C(=O)N2CCCN=C2c2[nH]c(-c3ccc(Br)cc3)nc21` [Compound 6, hydrochloride], for which, in data set [1] (setting [5]), the inhibition at 0.01 µM turned out to be 98%.

In the case of `CCCN1C(=O)N2CC(CC)N=C2c2[nH]c(-c3ccc(Br)cc3)nc21` (centres unmarked) [Compound 8, 2-(p-Bromophenyl)-8-ethyl-4-propyl-1,4,7,8-tetrahydro-5H-imidazo[2,1-i]purine-5-one hydrochloride], the inhibition at 0.1 µM in data set [1] stood at 96%.

For `CCOC(=O)/C=C/c1ccc(-c2nc3c([nH]2)C2=NCCN2C(=O)N3CC)cc1` [Compound 13, Ethyl (E)-4-(4-ethyl-1,4,7,8-tetrahydro-5H-imidazo [2,1-i]purine-5-one-2-yl)cinnamate], the inhibition at 0.1 µM in data set [1] (setting [4]) was determined as 76%. Also, the inhibition at 0.01 µM in data set [1] (setting [5]) is 75%.

For `CCOC(=O)/C=C/c1ccc(-c2nc3c([nH]2)C2=NCCCN2C(=O)N3CC)cc1` [Compound 14, Ethyl (E)-4-(4-ethyl-1,4,5,7,8,9-hexahydropyrimido [2,1-i]purine-5-one-2-yl)cinnamate], in data set [1] (setting [4]), the inhibition at 0.1 µM was determined as 55%. Moreover, the inhibition at 0.01 µM in data set [1] (setting [5]) was 29%.

On to `CCN1C(=O)N2CCCN=C2c2[nH]c(-c3ccc(/C=C/C(=O)O)cc3)nc21` [Compound 15, (E)-4-(4-Ethyl-1,4,5,7,8,9-hexahydropyrimido [2,1-i]-purine-5-one-2-yl)cinnamic acid], for which, in data set [1] (setting [4]), the inhibition at 0.1 µM came out at 66%. For the same compound, in data set [1] (setting [5]), the inhibition at 0.01 µM stood at 21%.

For `CCOC(=O)/C=C/c1ccc(-c2nc3c([nH]2)C2=NC(CC)CN2C(=O)N3CC)cc1` (centres unmarked) [Compound 16, Ethyl (E)-4-(4,8-diethyl-1,4,7,8-tetrahydro-5H-imidazo-[2,1-i]purine-5-one-2-yl)cinnamate], the inhibition at 0.1 µM in data set [1] (setting [4]) was 92%. For the same compound, the inhibition at 0.01 µM in data set [1] (setting [5]) was determined as 17%.

`CCC1CN2C(=O)N(CC)c3nc(-c4ccc(/C=C/C(=O)O)cc4)[nH]c3C2=N1` (centres unmarked) [Compound 17, (E)-4-(4,8-Diethyl-1,4,7,8-tetrahydro-5H-imidazo [2,1-i]-purine-5-one-2-yl)cinnamic acid]: in data set [1] (setting [4]), the inhibition at 0.1 µM came out at 70%. In addition, the inhibition at 0.01 µM in data set [1] (setting [5]) amounted to 36%.

On to `CCC1CN2C(=O)N(C)c3nc(-c4ccc(Br)cc4)[nH]c3C2=N1` (centres unmarked) [Compound 25, 2-(p-Bromophenyl)-8-ethyl-4-methyl-1,4,7,8-tetrahydro-5H-imidazo[2,1-i]purine-5-one hydrochloride], for which, in data set [1], the inhibition at 0.1 µM was 97% and the inhibition at 0.01 µM is 94%.

Turning to `CCCCN1C(=O)N2CCN=C2c2[nH]c(-c3ccc(Br)cc3)nc21` [Compound 26, 2-(p-Bromophenyl)-4-n-butyl-1,4,7,8-tetrahydro-5H-imidazo[2,1-i]purine-5-one hydrochloride], the inhibition at 0.01 µM in data set [1] was 85%.

On to `CCCN1C(=O)N2C[C@@H](C(C)C)N=C2c2[nH]c(-c3ccc(Br)cc3)nc21` [Compound 32, (R)-2-(p-Bromophenyl)-8-isopropyl-4-propyl-1,4,7,8-tetrahydro-5H-imidazo[2,1-i]purine-5-one], for which the inhibition at 0.1 µM in data set [1] (setting [4]) came out at 120%. For the same compound, the inhibition at 0.01 µM in data set [1] (setting [5]) was 84%.

In the case of `CCCN1C(=O)N2C[C@H](C(C)C)N=C2c2[nH]c(-c3ccc(Br)cc3)nc21` [Compound 33, (S)-2-(p-Bromophenyl)-8-isopropyl-4-propyl-1,4,7,8-tetrahydro-5H-imidazo[2,1-i]purine-5-one], the inhibition at 0.1 µM in data set [1] (setting [4]) is 95%. For the same compound, the inhibition at 0.01 µM in data set [1] (setting [5]) is 89%.

Turning to `CCCN1C(=O)N2C[C@@H](c3ccccc3)N=C2c2[nH]c(-c3ccc(Br)cc3)nc21` [Compound 35, (R)-2-(p-Bromophenyl)-8-phenyl-4-propyl-1,4,7,8-tetrahydro-5H-imidazo[2,1-i]-purine-5-one], the inhibition at 0.1 µM in data set [1] (setting [4]) is 52%. In data set [1] (setting [5]), the inhibition at 0.01 µM worked out at 94%.
